# Data published in patent US20240307350A1, “5-METHOXY-N,N-DIMETHYLTRYPTAMINE (5-MEO-DMT) FOR TREATING DEPRESSION” (GH RESEARCH IRELAND LIMITED, priority 2019, published 2024).
# System: patients with treatment-resistant major depressive disorder
# Assay: Clinical trial in treatment-resistant major depressive disorder: symptom scales (MADRS, PGI-S, PGI-I, C-SSRS, BPRS)
# Format: in vivo, human
# Conditions: for PGI-I: 1, Very much improved, 2, Much improved, to 7, Very much worse; for MADRS suicidal thoughts item: ranges from 0 to 6; for BPRS Unusual thought content / BPRS Somatic concern / BPRS Tension / BPRS Guilt feelings / BPRS Depressive Mood / BPRS Anxiety: scale of 1-7; for PGI-S: 1, Normal, not at all ill to 7, Extremely ill; for MADRS: score 0 to 60; for BPRS (total): 18 symptoms each rated 1-7; for C-SSRS Suicidal Ideation: whether any of the suicidal ideation items were present
# Protocol: A clinical trial was performed in which 5-MeO-DMT free base (purity not less than 99%) was administered to patients with treatment-resistant major depressive disorder (TRD). The objectives of the study were to assess the safety and tolerability, the dose-related psychedelic effects and the effects on various measures of depression of single-day dosing of 5-MeO-DMT. The trial was reviewed and approved by the relevant national competent authority and local medical ethics committee. Patients recruited into the trial had to meet the Diagnostic and Statistical Manual of Mental Disorders-Fifth Edition (DSM-5) diagnostic criteria for single-episode or recurrent major depressive disorder and had to be treatment-resistant, both aspects as evaluated by a psychiatrist or registered psychologist. Patients who were using any psychoactive medication or substance (such as anti-depressive medication) had to discontinue such medication or substance and had to observe a wash-out period before the 5-MeO-DMT administration. On the administration day, a single dose of 12 mg 5-MeO-DMT was administered to the patients via a single inhalation as described in Example 1A. Patients were closely monitored for 3.5 hours after administration, with additional follow-up visits 1 day and 7 days after dosing. Various safety related measures (e.g., adverse event reporting, safety laboratory analyses, vital signs, electrocardiogram (ECG), Clinician Administered Dissociative States Scale (CADSS), Psychomotor Vigilance Test (PVT), Digit Symbol Substitution Test (DSST)), measures of the intensity of the psychedelic effects (e.g., Peak Psychedelic Experience Questionnaire (PPEQ), Altered States of Consciousness (ASC) Questionnaire, Mystical Experience Questionnaire (MEQ30), subjective description of the psychedelic experience), measures of depression severity (Montgomery-Åsberg Depression Rating Scale (MADRS), Patient's Global Impression of Severity scale (PGI-S), Patient's Global Impression of Improvement scale (PGI-I)), and additional psychological measures (e.g., Columbia-Suicide Severity Rating Scale (C-SSRS), Brief Psychiatric Rating Scale (BPRS)) were recorded at different time points. Psychological support via a psychologist and/or psychiatrist was available to the patients throughout the study, but no specific psychotherapy was applied, and no additional psychoactive medication was provided.
# Two patients with major depressive disorder diagnosed by a psychiatrist according to DSM-5 diagnostic criteria were recruited into the study (Example 2, Table 1). The patients were considered treatment-resistant because they had not shown adequate improvement to at least two adequate courses of pharmacological therapy in the current episode of depression.
# [1] = Patient 1, 2 hours after 12 mg inhaled
# [2] = Patient 1, 2 hours after 12 mg inhaled, baseline 1
# [3] = Patient 1, 2 hours after 12 mg inhaled, baseline 5
# [4] = Patient 1, 1 day after 12 mg inhaled
# [5] = Patient 1, 1 day after 12 mg inhaled, baseline 1
# [6] = Patient 1, 1 day after 12 mg inhaled, baseline 5
# [7] = Patient 1, 7 days after 12 mg inhaled
# [8] = Patient 1, 7 days after 12 mg inhaled, baseline 1
# [9] = Patient 1, 7 days after 12 mg inhaled, baseline 5
# [10] = Patient 2, 2 hours after 12 mg inhaled
# [11] = Patient 2, 2 hours after 12 mg inhaled, baseline 5
# [12] = Patient 2, 1 day after 12 mg inhaled
# [13] = Patient 2, 1 day after 12 mg inhaled, baseline 5
# [14] = Patient 2, 7 days after 12 mg inhaled
# [15] = Patient 2, 7 days after 12 mg inhaled, baseline 5
# [16] = both patients, all assessment time points after 12 mg inhaled
# [17] = single dose of 12 mg via inhalation
structure (smiles),measurement,setting,value
"COc1ccc2[nH]cc(CCN(C)C)c2c1 [5-MeO-DMT, 5-methoxy-N,N-dimethyltryptamine]",% MADRS change vs. baseline,[1],−68%
same,PGI-I,[1],1
same,MADRS suicidal thoughts item,[2],0
same,BPRS Unusual thought content,[2],1
same,BPRS Somatic concern,"Patient 1, 2 hours after 12 mg inhaled, baseline 3",2
same,BPRS Tension,"Patient 1, 2 hours after 12 mg inhaled, baseline 4",3
same,PGI-S,[3],1
same,BPRS Guilt feelings,[3],1
same,BPRS Depressive Mood,"Patient 1, 2 hours after 12 mg inhaled, baseline 6",2
same,BPRS Anxiety,"Patient 1, 2 hours after 12 mg inhaled, baseline 7",2
same,MADRS,"Patient 1, 2 hours after 12 mg inhaled, baseline 31",10
same,BPRS (total),"Patient 1, 2 hours after 12 mg inhaled, baseline 42",27
same,C-SSRS Suicidal Ideation,"Patient 1, 2 hours after 12 mg inhaled, baseline Yes",No
same,% MADRS change vs. baseline,[4],−74%
same,PGI-I,[4],1
same,MADRS suicidal thoughts item,[5],0
same,BPRS Unusual thought content,[5],1
same,BPRS Somatic concern,"Patient 1, 1 day after 12 mg inhaled, baseline 3",1
same,BPRS Tension,"Patient 1, 1 day after 12 mg inhaled, baseline 4",1
same,PGI-S,[6],1
same,BPRS Guilt feelings,[6],1
same,BPRS Depressive Mood,"Patient 1, 1 day after 12 mg inhaled, baseline 6",1
same,BPRS Anxiety,"Patient 1, 1 day after 12 mg inhaled, baseline 7",1
same,MADRS,"Patient 1, 1 day after 12 mg inhaled, baseline 31",8
same,BPRS (total),"Patient 1, 1 day after 12 mg inhaled, baseline 42",18
same,C-SSRS Suicidal Ideation,"Patient 1, 1 day after 12 mg inhaled, baseline Yes",No
same,% MADRS change vs. baseline,[7],−90%
same,PGI-I,[7],1
same,MADRS suicidal thoughts item,[8],0
same,BPRS Unusual thought content,[8],1
same,BPRS Somatic concern,"Patient 1, 7 days after 12 mg inhaled, baseline 3",1
same,BPRS Tension,"Patient 1, 7 days after 12 mg inhaled, baseline 4",1
same,PGI-S,[9],1
same,BPRS Guilt feelings,[9],1
same,BPRS Depressive Mood,"Patient 1, 7 days after 12 mg inhaled, baseline 6",1
same,BPRS Anxiety,"Patient 1, 7 days after 12 mg inhaled, baseline 7",1
same,MADRS,"Patient 1, 7 days after 12 mg inhaled, baseline 31",3
same,BPRS (total),"Patient 1, 7 days after 12 mg inhaled, baseline 42",18
same,C-SSRS Suicidal Ideation,"Patient 1, 7 days after 12 mg inhaled, baseline Yes",No
same,% MADRS change vs. baseline,[10],−73%
same,PGI-I,[10],2
same,MADRS suicidal thoughts item,"Patient 2, 2 hours after 12 mg inhaled, baseline 1",0
same,BPRS Tension,"Patient 2, 2 hours after 12 mg inhaled, baseline 3",1
same,BPRS Somatic concern,"Patient 2, 2 hours after 12 mg inhaled, baseline 4",1
same,PGI-S,[11],1
same,BPRS Anxiety,[11],2
same,BPRS Depressive Mood,[11],3
same,BPRS Guilt feelings,[11],1
same,BPRS Unusual thought content,"Patient 2, 2 hours after 12 mg inhaled, baseline 6",1
same,MADRS,"Patient 2, 2 hours after 12 mg inhaled, baseline 33",9
same,BPRS (total),"Patient 2, 2 hours after 12 mg inhaled, baseline 45",26
same,C-SSRS Suicidal Ideation,"Patient 2, 2 hours after 12 mg inhaled, baseline No",No
same,% MADRS change vs. baseline,[12],−85%
same,PGI-I,[12],2
same,MADRS suicidal thoughts item,"Patient 2, 1 day after 12 mg inhaled, baseline 1",1
same,BPRS Tension,"Patient 2, 1 day after 12 mg inhaled, baseline 3",1
same,BPRS Somatic concern,"Patient 2, 1 day after 12 mg inhaled, baseline 4",1
same,PGI-S,[13],1
same,BPRS Anxiety,[13],1
same,BPRS Depressive Mood,[13],1
same,BPRS Guilt feelings,[13],1
same,BPRS Unusual thought content,"Patient 2, 1 day after 12 mg inhaled, baseline 6",1
same,MADRS,"Patient 2, 1 day after 12 mg inhaled, baseline 33",5
same,BPRS (total),"Patient 2, 1 day after 12 mg inhaled, baseline 45",19
same,C-SSRS Suicidal Ideation,"Patient 2, 1 day after 12 mg inhaled, baseline No",No
same,% MADRS change vs. baseline,[14],−85%
same,PGI-I,[14],2
same,MADRS suicidal thoughts item,"Patient 2, 7 days after 12 mg inhaled, baseline 1",0
same,BPRS Tension,"Patient 2, 7 days after 12 mg inhaled, baseline 3",1
same,BPRS Somatic concern,"Patient 2, 7 days after 12 mg inhaled, baseline 4",1
same,PGI-S,[15],1
same,BPRS Anxiety,[15],1
same,BPRS Depressive Mood,[15],1
same,BPRS Guilt feelings,[15],1
same,BPRS Unusual thought content,"Patient 2, 7 days after 12 mg inhaled, baseline 6",1
same,MADRS,"Patient 2, 7 days after 12 mg inhaled, baseline 33",5
same,BPRS (total),"Patient 2, 7 days after 12 mg inhaled, baseline 45",18
same,C-SSRS Suicidal Ideation,"Patient 2, 7 days after 12 mg inhaled, baseline No",No
same,standard criteria for MADRS remission (MADRS total score equal or less than 10),[16],fulfilled
same,standard criteria for MADRS response (at least 50% improvement from baseline),[16],fulfilled
same,time to clinical remission after a single 5-MeO-DMT administration,[17],≤ 2 h
same,time to clinical response after 5-MeO-DMT administration,[17],≤ 2 h
